Results as given in the supplement of paper PMC10307832.

Tests used:
Assay in all cases: relative viability (nuclei count vs DMSO), 5 days (fraction); higher = more cells survive
[1] = compound: C1CSC2=C(C(=O)N1)SC3=C2C=C(C=C3)O [kb NB 142-70] + Cc1cc(Nc2cc(N3CCN(C)CC3)nc(Sc3ccc(NC(=O)C4CC4)cc3)n2)n[nH]1 [Tozasertib] (partner 0.1 µM)
In short: (§1)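 Lung cancer cell lines were pin-tool dosed in 1536-well plates on the day after seeding, with either a lone drug or a fixed anchor-drug dose plus five library-drug doses (not always all listed) in √10 steps. Nuclei were counted on 4× images after 5 days. Relative viability is the ratio of treated-well to vehicle-well nuclei counts, with each value a median of duplicate plates.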

[2] = compound: NCC(=O)Nc1ccc(-n2nc(C(F)(F)F)cc2-c2ccc3c(ccc4ccccc43)c2)cc1 + CC(=O)Nc1cccc(-n2c(=O)n(C3CC3)c(=O)c3c(Nc4ccc(I)cc4F)n(C)c(=O)c(C)c32)c1 [Trametinib] (partner 0.02 µM)
In short: as §1

[3] = compound: C1CSC2=C(C(=O)N1)SC3=C2C=C(C=C3)O [kb NB 142-70] + Nc1nc2[nH]cc(CCc3ccc(C(=O)N[C@@H](CCC(=O)O)C(=O)O)cc3)c2c(=O)[nH]1 [Pemetrexed] (partner 0.2 µM)
In short: as §1

[4] = compound: NCC(=O)Nc1ccc(-n2nc(C(F)(F)F)cc2-c2ccc3c(ccc4ccccc43)c2)cc1 + NC(=O)Nc1cc(-c2cccc(F)c2)sc1C(=O)N[C@H]1CCCNC1 [AZD7762] (partner 0.2 µM)
In short: as §1

[5] = compound: C1CSC2=C(C(=O)N1)SC3=C2C=C(C=C3)O [kb NB 142-70] + Nc1ncn([C@H]2C[C@H](O)[C@@H](CO)O2)c(=O)n1 [Decitabine] (partner 2 µM)
In short: as §1

Cell Line	relative viability ([1]; first compound 0.1 µM)	relative viability ([1]; first compound 1 µM)	relative viability ([1]; first compound 3.162 µM)	relative viability ([2]; first compound 0.02 µM)	relative viability ([2]; first compound 0.06325 µM)	relative viability ([2]; first compound 0.2 µM)	relative viability ([2]; first compound 0.6325 µM)	relative viability ([2]; first compound 2 µM)	relative viability ([3]; first compound 0.1 µM)	relative viability ([3]; first compound 1 µM)	relative viability ([3]; first compound 3.162 µM)	relative viability ([4]; first compound 0.02 µM)	relative viability ([4]; first compound 0.06325 µM)	relative viability ([4]; first compound 0.2 µM)	relative viability ([4]; first compound 0.6325 µM)	relative viability ([4]; first compound 2 µM)	relative viability ([5]; first compound 0.1 µM)	relative viability ([5]; first compound 1 µM)	relative viability ([5]; first compound 3.162 µM)
HCC-827	0.418	0.429	0.367	0.572	0.584	0.58	0.553	0.521	0.25	0.243	0.267	0.213	0.189	0.245	0.316	0.235	0.31	0.288	0.274
HOP-62	0.314	0.315	0.245	0.395	0.378	0.378	0.368	0.336	0.3	0.361	0.388	0.646	0.482	0.693	0.566	0.711	0.217	0.203	0.226
LC-2-ad	0.451	0.428	0.341	0.952	0.971	0.951	0.95	0.935	0.275	0.23	0.295	1.09	0.875	0.772	0.849	0.886	0.798	0.769	0.772
LCLC-97TM1	0.197	0.207	0.149	0.21	0.215	0.213	0.198	0.189	0.174	0.186	0.182	0.284	0.253	0.28	0.39	0.159	0.268	0.205	0.135
LCLC-103H	0.472	0.524	0.417	0.67	0.688	0.694	0.67	0.618	0.447	0.453	0.471	0.796	0.79	0.752	0.812	0.818	0.75	0.737	0.773
LK-2	0.168	0.167	0.189	0.659	0.751	0.703	0.826	0.686	0.327	0.215	0.224	0.459	0.47	0.402	0.493	0.381	0.37	0.282	0.195
LOU-NH91	0.599	0.557	0.338	0.847	0.832	0.812	0.803	0.795	0.432	0.462	0.386	0.799	0.783	0.784	0.804	0.795	0.83	0.854	0.61
NCI-H520	0.45	0.517	0.37	0.637	0.641	0.747	0.678	0.679	0.765	0.667	0.375						0.506	0.43	0.357
NCI-H661	0.337	0.356	0.353	0.547	0.559	0.56	0.644	0.588	0.967	0.867	0.856						0.614	0.588	0.496
NCI-H727	0.607	0.541	0.514	0.411	0.372	0.351	0.346	0.394				0.531	0.53	0.58	0.696	0.599	0.915	0.868	0.768
NCI-H1563									0.864	0.961	0.774								
NCI-H1623	0.441	0.433	0.379																
NCI-H1650	0.47	0.334	0.339	0.403	0.54	0.648	0.769	0.642	0.315	0.419	0.481						0.492	0.408	0.442
NCI-H1703												0.127		0.122	0.124	0.142			
NCI-H1792				0.486	0.425	0.471	0.406	0.436	0.862	0.828	1.13	0.725	0.772	0.759	0.822	0.682	0.536	0.536	0.458
NCI-H2009	0.75	0.649	0.48	0.265	0.35	0.316	0.275	0.301	1.05	1.09	0.977						0.371	0.38	0.375
NCI-H2023	0.367	0.358	0.276	0.552	0.709	0.702	0.513	0.358	0.253	0.283	0.221						0.218	0.213	0.149
NCI-H2228	0.254	0.217	0.146	0.559	0.593	0.548	0.572	0.553	0.375	0.376	0.24								
SK-LU-1	0.339	0.282	0.182	0.43	0.519	0.537	0.521	0.576	0.958	0.954	0.412						0.589	0.505	0.417
SK-MES-1	0.867	0.85	0.221	0.56	0.555	0.612	0.511	0.593	1	1.11	0.548						0.466	0.338	0.22
SW 1573	0.153	0.182	0.146	0.551	0.436	0.637	0.565	0.476	0.81	0.744	0.36						0.526	0.378	0.26
